From the supplement of paper PMC10307832

Key:
Assay in all cases: relative viability (nuclei count vs DMSO), 5 days (fraction); higher = more cells survive
201T = test system: 201T
Procedure, shortened: (§1)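 Cells from lung cancer lines were seeded into 1536-well plates and, one day later, dosed by pin tool. Treatments were either a single drug or a fixed dose of an anchor drug with five library-drug doses (not always all listed) in √10 steps. After 5 days, nuclei were stained in a one-step fixation (final 0.05% Triton X-100, 1% formaldehyde, 1 ug/ml Hoechst) and counted on 4× images, and relative viability is the treated-to-vehicle nuclei ratio, as the median of duplicate plates.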

COR-L 105 = test system: COR-L 105
Procedure, shortened: as §1

ChaGo-K-1 = test system: ChaGo-K-1
Procedure, shortened: as §1

EPLC-272H = test system: EPLC-272H
Procedure, shortened: as §1

H3255 = test system: H3255
Procedure, shortened: as §1

HCC-78 = test system: HCC-78
Procedure, shortened: as §1

HCC-827 = test system: HCC-827
Procedure, shortened: as §1

LC-2-ad = test system: LC-2-ad
Procedure, shortened: as §1

LCLC-97TM1 = test system: LCLC-97TM1
Procedure, shortened: as §1

NCI-H1666 = test system: NCI-H1666
Procedure, shortened: as §1

NCI-H1915 = test system: NCI-H1915
Procedure, shortened: as §1

NCI-H2087 = test system: NCI-H2087
Procedure, shortened: as §1

NCI-H2126 = test system: NCI-H2126
Procedure, shortened: as §1

NCI-H2347 = test system: NCI-H2347
Procedure, shortened: as §1

NCI-H23 = test system: NCI-H23
Procedure, shortened: as §1

NCI-H2405 = test system: NCI-H2405
Procedure, shortened: as §1

NCI-H520 = test system: NCI-H520
Procedure, shortened: as §1

NCI-H647 = test system: NCI-H647
Procedure, shortened: as §1

NCI-H650 = test system: NCI-H650
Procedure, shortened: as §1

NCI-H661 = test system: NCI-H661
Procedure, shortened: as §1

PC-14 = test system: PC-14
Procedure, shortened: as §1

RERF-LC-KJ = test system: RERF-LC-KJ
Procedure, shortened: as §1

CCN(CC)CCCCNc1ncc2cc(-c3cc(OC)cc(OC)c3)c(NC(=O)NC(C)(C)C)nc2n1 + C[C@@H](Oc1cc(-c2cnn(C3CCNCC3)c2)cnc1N)c1c(Cl)ccc(F)c1Cl [Crizotinib] (partner 1 µM)
relative viability (201T; first compound 0.01 µM): 1.06 | relative viability (201T; first compound 0.03162 µM): 1.09 | relative viability (201T; first compound 0.1 µM): 1.06 | relative viability (201T; first compound 0.3162 µM): 1.05 | relative viability (201T; first compound 1 µM): 1.03 | relative viability (COR-L 105; first compound 0.01 µM): 0.795 | relative viability (COR-L 105; first compound 0.03162 µM): 0.796 | relative viability (COR-L 105; first compound 0.1 µM): 0.887 | relative viability (COR-L 105; first compound 0.3162 µM): 0.777 | relative viability (COR-L 105; first compound 1 µM): 0.658 | relative viability (ChaGo-K-1; first compound 0.01 µM): 1.24 | relative viability (ChaGo-K-1; first compound 0.03162 µM): 1.08 | relative viability (ChaGo-K-1; first compound 0.1 µM): 1.09 | relative viability (ChaGo-K-1; first compound 0.3162 µM): 1.32 | relative viability (ChaGo-K-1; first compound 1 µM): 1.06 | relative viability (EPLC-272H; first compound 0.01 µM): 1.23 | relative viability (EPLC-272H; first compound 0.1 µM): 1.13 | relative viability (EPLC-272H; first compound 0.3162 µM): 1.04 | relative viability (EPLC-272H; first compound 1 µM): 0.917 | relative viability (H3255; first compound 0.01 µM): 0.936 | relative viability (H3255; first compound 0.03162 µM): 0.885 | relative viability (H3255; first compound 0.1 µM): 1.14 | relative viability (H3255; first compound 0.3162 µM): 1.01 | relative viability (H3255; first compound 1 µM): 0.843 | relative viability (HCC-78; first compound 0.03162 µM): 0.318 | relative viability (HCC-78; first compound 0.1 µM): 0.347 | relative viability (HCC-78; first compound 0.3162 µM): 0.368 | relative viability (HCC-78; first compound 1 µM): 0.299 | relative viability (HCC-827; first compound 0.01 µM): 0.979 | relative viability (HCC-827; first compound 0.03162 µM): 0.958 | relative viability (HCC-827; first compound 0.1 µM): 0.968 | relative viability (HCC-827; first compound 0.3162 µM): 0.966 | relative viability (HCC-827; first compound 1 µM): 0.937 | relative viability (LC-2-ad; first compound 0.01 µM): 0.834 | relative viability (LC-2-ad; first compound 0.03162 µM): 0.503 | relative viability (LC-2-ad; first compound 0.1 µM): 0.49 | relative viability (LC-2-ad; first compound 0.3162 µM): 0.488 | relative viability (LC-2-ad; first compound 1 µM): 0.39 | relative viability (LCLC-97TM1; first compound 0.03162 µM): 0.45 | relative viability (LCLC-97TM1; first compound 0.1 µM): 0.373 | relative viability (LCLC-97TM1; first compound 0.3162 µM): 0.396 | relative viability (LCLC-97TM1; first compound 1 µM): 0.326 | relative viability (NCI-H1666; first compound 0.01 µM): 1.17 | relative viability (NCI-H1666; first compound 0.03162 µM): 0.985 | relative viability (NCI-H1666; first compound 0.1 µM): 0.895 | relative viability (NCI-H1666; first compound 0.3162 µM): 1.02 | relative viability (NCI-H1666; first compound 1 µM): 1.09 | relative viability (NCI-H1915; first compound 0.01 µM): 1.1 | relative viability (NCI-H1915; first compound 0.03162 µM): 0.926 | relative viability (NCI-H1915; first compound 0.1 µM): 0.943 | relative viability (NCI-H1915; first compound 0.3162 µM): 1.03 | relative viability (NCI-H1915; first compound 1 µM): 0.935 | relative viability (NCI-H2087; first compound 0.01 µM): 0.925 | relative viability (NCI-H2087; first compound 0.03162 µM): 0.967 | relative viability (NCI-H2087; first compound 0.1 µM): 1.01 | relative viability (NCI-H2087; first compound 0.3162 µM): 0.958 | relative viability (NCI-H2087; first compound 1 µM): 1.06 | relative viability (NCI-H2126; first compound 0.01 µM): 1.08 | relative viability (NCI-H2126; first compound 0.03162 µM): 0.992 | relative viability (NCI-H2126; first compound 0.1 µM): 1.06 | relative viability (NCI-H2126; first compound 0.3162 µM): 1.08 | relative viability (NCI-H2126; first compound 1 µM): 1.04 | relative viability (NCI-H2347; first compound 0.01 µM): 0.766 | relative viability (NCI-H2347; first compound 0.03162 µM): 0.62 | relative viability (NCI-H2347; first compound 0.1 µM): 0.677 | relative viability (NCI-H2347; first compound 0.3162 µM): 0.63 | relative viability (NCI-H2347; first compound 1 µM): 0.793 | relative viability (NCI-H23; first compound 0.01 µM): 0.537 | relative viability (NCI-H23; first compound 0.03162 µM): 0.568 | relative viability (NCI-H23; first compound 0.1 µM): 0.496 | relative viability (NCI-H23; first compound 0.3162 µM): 0.536 | relative viability (NCI-H23; first compound 1 µM): 0.511 | relative viability (NCI-H2405; first compound 0.01 µM): 0.834 | relative viability (NCI-H2405; first compound 0.03162 µM): 0.868 | relative viability (NCI-H2405; first compound 0.1 µM): 0.893 | relative viability (NCI-H2405; first compound 0.3162 µM): 0.873 | relative viability (NCI-H2405; first compound 1 µM): 0.8 | relative viability (NCI-H520; first compound 0.01 µM): 0.901 | relative viability (NCI-H520; first compound 0.03162 µM): 0.825 | relative viability (NCI-H520; first compound 0.1 µM): 0.86 | relative viability (NCI-H520; first compound 0.3162 µM): 0.61 | relative viability (NCI-H520; first compound 1 µM): 0.297 | relative viability (NCI-H647; first compound 0.01 µM): 1.06 | relative viability (NCI-H647; first compound 0.03162 µM): 1.08 | relative viability (NCI-H647; first compound 0.1 µM): 1.53 | relative viability (NCI-H647; first compound 0.3162 µM): 1.3 | relative viability (NCI-H647; first compound 1 µM): 0.774 | relative viability (NCI-H650; first compound 0.01 µM): 0.694 | relative viability (NCI-H650; first compound 0.03162 µM): 0.618 | relative viability (NCI-H650; first compound 0.1 µM): 0.863 | relative viability (NCI-H650; first compound 0.3162 µM): 0.743 | relative viability (NCI-H650; first compound 1 µM): 0.606 | relative viability (NCI-H661; first compound 0.03162 µM): 1.03 | relative viability (NCI-H661; first compound 0.1 µM): 0.972 | relative viability (NCI-H661; first compound 0.3162 µM): 1.04 | relative viability (NCI-H661; first compound 1 µM): 1.17 | relative viability (PC-14; first compound 0.01 µM): 0.916 | relative viability (PC-14; first compound 0.03162 µM): 0.875 | relative viability (PC-14; first compound 0.1 µM): 1.02 | relative viability (PC-14; first compound 0.3162 µM): 1.06 | relative viability (PC-14; first compound 1 µM): 0.904 | relative viability (RERF-LC-KJ; first compound 0.01 µM): 0.84 | relative viability (RERF-LC-KJ; first compound 0.03162 µM): 0.818 | relative viability (RERF-LC-KJ; first compound 0.1 µM): 1.13 | relative viability (RERF-LC-KJ; first compound 0.3162 µM): 0.916 | relative viability (RERF-LC-KJ; first compound 1 µM): 0.816
